Experimental data reported in ChEMBL document CHEMBL5143590, “Dihydropyrimidinone imidazoles as unique structural antibacterial agents for drug-resistant gram-negative pathogens” (Eur J Med Chem, 2022).
Converted amounts (≈) assume the structure as drawn.

What was measured:
Format in all cases: functional
[1] = tested on: Pseudomonas aeruginosa; test: Antibacterial activity against Pseudomonas aeruginosa 27853 assessed as inhibition of bacterial growth by two fold serial dilution method
[2] = tested on: Enterococcus faecalis; test: Antibacterial activity against Enterococcus faecalis assessed as inhibition of bacterial growth by two fold serial dilution method
[3] = tested on: Acinetobacter baumannii; test: Antibacterial activity against Acinetobacter baumannii assessed as inhibition of bacterial growth by two fold serial dilution method
[4] = tested on: Staphylococcus aureus; test: Antibacterial activity against methicillin-resistant Staphylococcus aureus N315 assessed as inhibition of bacterial growth by two fold serial dilution method
[5] = tested on: Staphylococcus aureus; test: Antibacterial activity against Staphylococcus aureus 29213 assessed as inhibition of bacterial growth by two fold serial dilution method
[6] = tested on: Klebsiella pneumoniae; test: Antibacterial activity against Klebsiella pneumoniae assessed as inhibition of bacterial growth by two fold serial dilution method
[7] = tested on: Staphylococcus aureus; test: Antibacterial activity against Staphylococcus aureus 25923 assessed as inhibition of bacterial growth by two fold serial dilution method
[8] = tested on: Pseudomonas aeruginosa; test: Antibacterial activity against Pseudomonas aeruginosa assessed as inhibition of bacterial growth by two fold serial dilution method
[9] = tested on: Escherichia coli; test: Antibacterial activity against Escherichia coli 25922 assessed as inhibition of bacterial growth by two fold serial dilution method
[10] = tested on: Escherichia coli; test: Antibacterial activity against Escherichia coli assessed as inhibition of bacterial growth by two fold serial dilution method
[11] = tested on: Staphylococcus aureus; test: Antibacterial activity against Staphylococcus aureus assessed as inhibition of bacterial growth by two fold serial dilution method

SMILES	MIC [1] [µg/mL]	MIC [2] [µg/mL]	MIC [3] [µg/mL]	MIC [4] [µg/mL]	MIC [5] [µg/mL]	MIC [6] [µg/mL]	MIC [7] [µg/mL]	MIC [8] [µg/mL]	MIC [9] [µg/mL]	MIC [10] [µg/mL]	MIC [11] [µg/mL]
CCCCc1nc(Cl)c(C2NC(=O)NC(C)=C2C(=O)OCC)n1Cc1ccc(Cl)cc1 (centres undefined)	64 (≈ 138 µM)	64 (≈ 138 µM)	32 (≈ 68.8 µM)	64 (≈ 138 µM)	64 (≈ 138 µM)	64 (≈ 138 µM)	64 (≈ 138 µM)	128 (≈ 275 µM)	64 (≈ 138 µM)	64 (≈ 138 µM)	64 (≈ 138 µM)
Cc1cc(NS(=O)(=O)c2ccc(N)cc2)no1 [SULFAMETHOXAZOLE]	32 (≈ 126 µM)	64 (≈ 253 µM)	32 (≈ 126 µM)	1 (≈ 3.95 µM)	16 (≈ 63.2 µM)	32 (≈ 126 µM)	128 (≈ 505 µM)	64 (≈ 253 µM)	8 (≈ 31.6 µM)	32 (≈ 126 µM)	32 (≈ 126 µM)
CCCCc1nc(Cl)c(C2NC(=O)NC(C)=C2C(=O)OCC)n1Cc1ccc(F)cc1 (centres undefined)	32 (≈ 71.3 µM)	32 (≈ 71.3 µM)	32 (≈ 71.3 µM)	16 (≈ 35.6 µM)	32 (≈ 71.3 µM)	16 (≈ 35.6 µM)	32 (≈ 71.3 µM)	32 (≈ 71.3 µM)	16 (≈ 35.6 µM)	16 (≈ 35.6 µM)	16 (≈ 35.6 µM)
CCCCc1nc(Cl)c(C2NC(=O)NC(C)=C2C(=O)OCC)n1CCC (centres undefined)	64 (≈ 167 µM)	32 (≈ 83.6 µM)	64 (≈ 167 µM)	64 (≈ 167 µM)	128 (≈ 334 µM)	64 (≈ 167 µM)	64 (≈ 167 µM)	32 (≈ 83.6 µM)	32 (≈ 83.6 µM)	64 (≈ 167 µM)	16 (≈ 41.8 µM)
CCCCc1nc(Cl)c(C2NC(=O)NC(C)=C2C(=O)OCC)n1Cc1cccc(Cl)c1 (centres undefined)	64 (≈ 138 µM)	64 (≈ 138 µM)	32 (≈ 68.8 µM)	64 (≈ 138 µM)	64 (≈ 138 µM)	32 (≈ 68.8 µM)	32 (≈ 68.8 µM)	128 (≈ 275 µM)	32 (≈ 68.8 µM)	64 (≈ 138 µM)	64 (≈ 138 µM)
CCCCc1nc(Cl)c(C2NC(=O)NC(C)=C2C(=O)OCC)n1S(=O)(=O)c1cccc(Cl)c1 (centres undefined)	64 (≈ 124 µM)	32 (≈ 62.1 µM)	128 (≈ 248 µM)	16 (≈ 31 µM)	64 (≈ 124 µM)	64 (≈ 124 µM)	32 (≈ 62.1 µM)	128 (≈ 248 µM)	32 (≈ 62.1 µM)	64 (≈ 124 µM)	64 (≈ 124 µM)
CCCCc1nc(Cl)c(C2NC(=O)NC(C)=C2C(=O)OCC)n1S(=O)(=O)c1ccc(C(F)(F)F)cc1 (centres undefined)	64 (≈ 117 µM)	16 (≈ 29.1 µM)	16 (≈ 29.1 µM)	8 (≈ 14.6 µM)	8 (≈ 14.6 µM)	64 (≈ 117 µM)	32 (≈ 58.3 µM)	32 (≈ 58.3 µM)	64 (≈ 117 µM)	32 (≈ 58.3 µM)	64 (≈ 117 µM)
CCCCc1nc(Cl)c(C2NC(=O)NC(C)=C2C(=O)OCC)n1S(=O)(=O)c1ccc(C(C)(C)C)cc1 (centres undefined)	64 (≈ 119 µM)	128 (≈ 238 µM)	128 (≈ 238 µM)	64 (≈ 119 µM)	64 (≈ 119 µM)	128 (≈ 238 µM)	32 (≈ 59.6 µM)	256 (≈ 477 µM)	64 (≈ 119 µM)	64 (≈ 119 µM)	64 (≈ 119 µM)
CCCCc1nc(Cl)c(C2NC(=O)NC(C)=C2C(=O)OCC)n1CC(=O)N1CCOCC1 (centres undefined)	256 (≈ 547 µM)	128 (≈ 274 µM)	128 (≈ 274 µM)	64 (≈ 137 µM)	64 (≈ 137 µM)	32 (≈ 68.4 µM)	128 (≈ 274 µM)	64 (≈ 137 µM)	256 (≈ 547 µM)	128 (≈ 274 µM)	64 (≈ 137 µM)
CCCCc1nc(Cl)c(C2NC(=O)NC(C)=C2C(=O)OCC)n1CC (centres undefined)	128 (≈ 347 µM)	64 (≈ 174 µM)	128 (≈ 347 µM)	64 (≈ 174 µM)	256 (≈ 694 µM)	64 (≈ 174 µM)	128 (≈ 347 µM)	64 (≈ 174 µM)	32 (≈ 86.8 µM)	64 (≈ 174 µM)	64 (≈ 174 µM)
C#CCn1c(CCCC)nc(Cl)c1C1NC(=O)NC(C)=C1C(=O)OCC (centres undefined)	128 (≈ 338 µM)	64 (≈ 169 µM)	64 (≈ 169 µM)	64 (≈ 169 µM)	64 (≈ 169 µM)	32 (≈ 84.5 µM)	128 (≈ 338 µM)	64 (≈ 169 µM)	64 (≈ 169 µM)	128 (≈ 338 µM)	64 (≈ 169 µM)
CCCCc1nc(Cl)c(C2NC(=O)NC(C)=C2C(=O)OCC)n1Cc1ccccc1Cl (centres undefined)	32 (≈ 68.8 µM)	32 (≈ 68.8 µM)	32 (≈ 68.8 µM)	16 (≈ 34.4 µM)	128 (≈ 275 µM)	128 (≈ 275 µM)	16 (≈ 34.4 µM)	64 (≈ 138 µM)	32 (≈ 68.8 µM)	32 (≈ 68.8 µM)	32 (≈ 68.8 µM)
CCCCc1nc(Cl)c(C2NC(=O)NC(C)=C2C(=O)OCC)n1CCN1CCOCC1 (centres undefined)	256 (≈ 564 µM)	128 (≈ 282 µM)	128 (≈ 282 µM)	64 (≈ 141 µM)	128 (≈ 282 µM)	64 (≈ 141 µM)	128 (≈ 282 µM)	256 (≈ 564 µM)	128 (≈ 282 µM)	128 (≈ 282 µM)	32 (≈ 70.5 µM)
CCCCc1nc(Cl)c(C2NC(=O)NC(C)=C2C(=O)OCC)n1S(=O)(=O)c1cccc(Br)c1 (centres undefined)	16 (≈ 28.6 µM)	16 (≈ 28.6 µM)	32 (≈ 57.2 µM)	32 (≈ 57.2 µM)	64 (≈ 114 µM)	16 (≈ 28.6 µM)	64 (≈ 114 µM)	32 (≈ 57.2 µM)	32 (≈ 57.2 µM)	32 (≈ 57.2 µM)	32 (≈ 57.2 µM)
